The subject of this data set is zebrafish (Danio rerio) embryos. As to the kind of experiment: Heart rate of zebrafish embryos with doxorubicin-induced cardiotoxicity. It is filed as in vivo. Conditions: doxorubicin alone 3 μg/ml. The procedure: The embryos were treated with the polyphenol concentrate of the present invention (sample A009), at the dilutions 1:100 and 1:500, alone or in association with Doxorubicin (3 μg/mL). A pre-treatment was performed with A009, followed by administration of Doxorubicin and A009+Doxorubicin co-treatment. NT=not-treated cells. ^∘∘∘=p<0.0001 with respect to not-treated embryos; ***=p<0.001 with respect to embryos treated with doxorubicin alone;
The embryos were treated with the polyphenol concentrate of the present invention (sample A009), at the dilutions 1:100 and 1:500, alone or in association with Doxorubicin (3 μg/mL). A pre-treatment was performed with A009, followed by administration of Doxorubicin and A009+Doxorubicin co-treatment. NT=not-treated cells. ^∘∘∘=p<0.0001 with respect to not-treated embryos; ***=p<0.001 with respect to embryos treated with doxorubicin alone.
To evaluate the cardioprotective effect of the polyphenol concentrate of the invention, the zebrafish was used in vivo as the animal model to study. In particular the experiments were performed on zebrafish (Danio rerio) embryos incubated for 24, 48 and 72 hours after fertilization. […]

Structures are written as SMILES.

For the molecule `COc1cccc2c1C(=O)c1c(O)c3c(c(O)c1C2=O)C[C@@](O)(C(=O)CO)C[C@@H]3O[C@H]1C[C@H](N)[C@H](O)[C@H](C)O1` [doxorubicin], the “heart rate of zebrafish embryos” value runs as follows: (48 hours, FIG. 2) “significantly reduces their heart rate”; (72 hours, FIG. 3) “significantly reduces their heart rate”.

The values are drawn from patent publication US20210000783A1, “USE OF EXTRACT OF VEGETATION WATERS FOR TREATING DAMAGE TO THE CARDIOVASCULAR SYSTEM” (FATTORIA LA VIALLA DI GIANNI, ANTONIO E BANDINO LO FRANCO - …, priority 2017, published 2021).
